Data: patent publication US12679855B2, “Inhibitors of the enzyme enolase for precision oncology” (Board of Regents, The University of Texas System, priority 2019, dated 2026)
Entries after “also recorded” stand apart in the source; their conditions may differ. Where two headings read alike, the source gives them in different places.

Tests used:
[1] = tested on: D423 (ENO1-deleted) glioma cells; assay: Cell proliferation assay (crystal violet) in ENO1-deleted glioma cells; assay type: cell-based; conditions: for IC50: Glioma cell; for selectivity for ENO1-deleted cells: versus ENO1-rescued (D423 ENO1) and ENO1-intact (LN319) glioma cells
Procedure: Cell culture experiments. Cell culture experiments were conducted using the D423-MG cell line. 1p36 homozygous deletion in D423 includes the genes from CAMTAJ to SLC25A33; this includes ENO1. Isogenic ENO1 ectopically rescued lines were described previously (pCMV ENO1 5X) (Muller et al., 2012, which is incorporated by reference herein). An ENO1-intact cell line (LN319) was used as a control for sensitivity to Enolase inhibitors. Cells were routinely cultured in Dulbecco's modified Eagle's medium supplemented with 10% fetal bovine serum.
Cell proliferation assay. Cell Proliferation was determined by crystal violet staining, as previously described (Leonard et al., 2016 and Satani et al., 2016). The cell lines used were D423 (ENO1-deleted), D423 ENO1 (overexpressing ENO1) and LN319 (control). Glioma cells were seeded in 96-well plates and treated with varying concentrations of the inhibitors described above for 7 days. Cells were then washed with PBS, fixed with 10% formalin and stained with 0.05% crystal violet. Washed and dried plates were dye-extracted using 10% acetic acid, and absorbance was measured at 595 nm using Omegastar Plate Reader (BMG Labtech). To test the efficacy of the synthesized under hypoxic conditions, 1×10^4 cells were plated in 96-well plates, treated with VCY13, VCY15, VCY16, or VCY17 and incubated for 3 days in a hypoxia station (Don Whitley Scientific, Shipley, UK) set at 1% O2 and 5% CO2. Crystal violet staining was then performed as described above.
Additional Biological Data. Pro-drug inhibitor structures and corresponding IC50 values against ENO1-deleted cells are shown below in Table 2. The name and corresponding structures of all synthesized inhibitors are given in left and middle columns of each table. Pro-drug moieties in blue represent a second pro-drug leave group while those in red represent a first pro-drug leave group. Some inhibitors also contain an acetyl-protected hydroxamate, which is also a biologically labile moiety. ENO1-deleted (D423), ENO1-isogenically rescued (D423 ENO1), and ENO1-WT (LN319) cells were treated with either pro-drug inhibitor for 5 days at 21% O2, unless otherwise specified. […] IC50,D423 values at 21% O2 are given in the right columns of each table. Experiments conducted at 1% O2 (hypoxic) or 70% O2 (hyperoxic) conditions are noted, where appropriate.

[2] = assay type: in vitro ADME
Description: Also described herein are synthesized phosphonate pro-drugs that forgo the use of phosphoramidases or esterases to release the active pharmacophore. These moieties include the attachment of 2-(hydroxymethyl)phenol (VCY27) and 3-(hexadecyloxy)propan-1-ol (ESB7). […] Cyclosal pro-drugs have previously been described for protecting phosphate-containing antiviral nucleotides; however, it was herein discovered that its delivery efficacy can be enhanced under high O2 conditions—a previously unknown finding. Separately, the 3-(hexadecyloxy)propan-1-ol is a pro-drug that has been applied to the antiviral nucleotide Brincidofovir (CMX-001). Appending the long chain ester to HEX may facilitate the pro-drug moiety to be used for the treatment of malignant glioma.

NCI-60 cell lines = assay: NCI-60 screening; assay type: cell-based; conditions: NSC: D-813202
Description: Without wishing to be bound by any particular theory, phosphoamidates may be removed across broad cell types. Whilst the IDX184 utilized benzylamine in its pro-drug structure, this drug was specifically directed at hepatocytes, and no evidence was forthcoming that it would be a pro-drug moiety applicable for glioblastoma or other cancer drug delivery. […] For example, FLM37 has been submitted to the NCI-60 screening (NSC: D-813202). All cancer cell lines were affected at concentrations of FLM37 above 10 μM, some with as little as 1 μM. […] More generally, this means that the amine as a second leaving group is applicable as a universal second leaving group for the delivery of phosphonate/phosphate containing bioactive compounds.

[3] = tested on: D423 (ENO1-deleted) glioma cells; assay: Cell proliferation assay (crystal violet) in ENO1-deleted glioma cells; assay type: cell-based
Enolase = Enolase enzymatic activity assay (spectrophotometric, 2-PG to PEP, 240 nm); assay type: biochemical, human; conditions: serial dilutions beginning at 100 μM, native lysates
Procedure: (§1) To assure that benzylamine-protected HEX (FLM38) was not inhibiting Enolase directly, an in vitro spectrophotometric assay was performed to examine Enolase catalytic activity through conversion of 2-phoshpoglycerate (2-PG) to phosphoenolpyruvate (PEP). Without wishing to be bound by theory, if FLM38 were to inhibit Enolase directly, a dose-dependent decrease in absorbance at 240 nm would be observed, corresponding to decreased production of PEP. […] The possibility that the benzylamine moiety could undergo non-enzymatic hydrolysis in aqueous conditions was also examined. This study was performed by measuring the pH-dependence of compound degradation in phosphate buffered D2O via NMR over 3 days.
Enolase enzymatic activity assay. The enzyme activity assay was performed according to a previously described procedure (Muller et al., 2012, which is incorporated by reference herein). […]
In the first, the lysates were treated with the serial dilutions of FLM38 (starting at 100 μM) and the reaction initiated by adding 2.5 mM 2-PG and optical density (OD) was measured at 240 nm using Omegastar Plate reader (BMG Labtech) over the course of 3 h.
In the second experiment, the lysates were pre-incubated in 96-well plates with serial dilutions of FLM38 (starting at 100 µM) at 37° C. for 20 h. The reaction was initiated by adding 2.5 mM 2-PG and OD was measured at 240 nm. […]

[4] = pH degradation assay (31P NMR in phosphate buffered D2O); assay type: physicochemical; conditions: pH 3, 7, and 8.82, phosphate buffered D2O, NMR over 3 days
Procedure: as §1
pH degradation assay. Solutions of 50 mM phosphate buffered D2O were prepared at pH 3, 7, and 8.82. For each condition, FLM38 (5 mg, […]) was dissolved in […] of phosphate buffered D2O and placed in NMR tubes. Hydrolysis was monitored by ^31P NMR and was evidenced by the degradation of the compound peak at ~20 ppm and the emergence of the hydrolyzed product at ~18 ppm. Scans were collected every 12 h on a Bruker 500 MHz NMR.

[5] = nitroimidazole in VCY17, nitrofuran in VCY15; cited from earlier work
[6] = Serum containing cell culture media stability assay; assay type: in vitro ADME
Procedure: Serum containing Cell Culture Media stability assay. POMHEX and VCY17 (1 mM) were added to DMEM-containing 10% Fetal Bovine Serum cell culture media in an NMR tube with 10% D2O for signal lock) and incubated at 37° C. ^31P NMR measurements (^31P CPD, 1000 transients) were conducted every 24 hours, for 4 days.

[7] = Human plasma stability assay (31P NMR); assay type: in vitro ADME
Procedure: VCY17 (left) and POMHEX (right) were prepared at 1.5 mM and added to human plasma in an NMR tube with 10% D2O for signal lock. […] As expected, emergence of the second peak after 1 h is due to hydrolysis of the acetyl-protected hydroxamate; the nitroimidazole moiety remains attached (mono-ester phosphonates always show ^31P-chemical shifts <20 ppm); intact phosphoramidate mixed ester was verified by ^31P-^1H HSQC showing resonance with protons at ~5 ppm (—CH2—O—P) and 4 ppm (—CH2—NH—P). Note that VCY17 and de-acetylated VCY17 can come out as doublets: this is because two chiral centers (Phosphorus and C1) yield cis/trans diasteromers.
VCY13 (FIG. 20A) and VCY31 (FIG. 20B) are thioesterase-labile phosphonoamidates. ENO1-deleted (D423, red), ENO1-isogenically rescued (D423 ENO1, blue), and ENO1-WT (LN319, grey) cells were treated with either VCY13 or VCY31 for 5 days. […] (FIG. 20B) VCY31 is a structurally similar pro-drug that uses 2-picolylamine, rather than benzylamine, as a second pro-drug leave group. […] 4 mM VCY31 was dissolved in 80% human plasma, 20% D2O and monitored by ^31P NMR (121 MHz) for 15 hours. Intact VCY31 has a ^31P NMR shift of 33 ppm. Hydrolysis of the thioester begins to occur after 2 hours, as indicated by the emergence of a peak at ~16 ppm.
Human plasma stability assay. POMHEX and VCY17 (1.5 mM) were added to human plasma (Sigma #P9523) in an NMR tube with 10% D2O for signal lock. ^31P NMR measurements (31P CPD, 1000 transients) were conducted every 30 minutes on the first day and every 24 hours, for 4 days afterwards.

[8] = tested on: xenografted tumor (D423 ENO1-homozygously deleted cell line); assay: Anti-tumor efficacy in xenografted tumor model; assay type: in vivo, Foxn1 nude mice
Procedure: Two HEX pro-drugs from different classes were tested for anti-tumor efficacy in xenografted tumor (D423 ENO1-homozygously deleted cell line) pre-clinical models (the standard immunodeficient Foxn1 nude mice). Tumor volumes (y-axis) were measured at the indicated dates (x-axis). Without treatment, tumors grow inexorably. […] This is notable because of the high esterase activity in mouse plasma, rodents are a sub-optimal model for pre-clinical efficacy evaluation of esterase-labile pro-drugs.

[9] = 120 h, ENO1-deleted (D423) cells, 5 days, 21% O2, read-out: IC50,D423
[10] = 120 h, 21% O2, 5 days where stated, read-out: IC50 against D423 (ENO1-deleted) cells
[11] = 4 mM in 80% human plasma, 20% D2O, 31P NMR

SMILES: CCCCCCCCCCCCCCCCOCCCOP(=O)(O)C1CCCN(O)C1=O (stereo not shown) [ESB7, 3-(hexadecyloxy)propyl hydrogen (1-hydroxy-2-oxopiperidin-3-yl)phosphonate]
- IC50 [1, 9]: 202 nM
- selectivity for ENO1-deleted cells [1]: selective killing against ENO1-deleted cells
- stability under various pH conditions and in biological fluids [2]: robust stability

SMILES: CC(C)(C)C(=O)OCOP(=O)(NCc1ccccc1)C1CCCN(O)C1=O (stereo not shown) [FLM37]
- concentration at which some cancer cell lines were affected (NCI-60 cell lines): ≥ 1 µM
- concentrations at which all cancer cell lines were affected (NCI-60 cell lines): above 10 μM
- IC50 ([3]; Glioma cell, 144 h, 6 days, starting concentration 1 μM, crystal violet (FIG. 7), read-out: IC50 towards D423 cells): 63 nM
- IC50 [1, 10]: 244 nM
- IC50 [1, 9]: 150 nM
- selectivity for ENO1-deleted cells [1]: selective killing towards D423 cells; also recorded: selective for ENO1-deleted cells

SMILES: O=C1C(P(=O)(O)NCc2ccccc2)CCCN1O (stereo not shown) [FLM38, N-benzyl-P-(1-hydroxy-2-oxopiperidin-3-yl)phosphonamidic acid]
- direct inhibition of Enolase (dose-dependent decrease in absorbance at 240 nm) (Enolase): does not inhibit Enolase directly
- stability to non-enzymatic hydrolysis [4]: remained intact

SMILES: CC(=O)ON1CCCC(P(=O)(NCc2ccccc2)OCc2cnc([N+](=O)[O-])n2C)C1=O (stereo not shown) [VCY17, 3-((benzylamino)((1-methyl-2-nitro-1H-imidazol-5-yl)methoxy)phosphoryl)-2-oxopiperidin-1-yl acetate]
- redox potential of the nitroheterocycle [5]: −390 mV
- potency increase under 1% O2 ([3]; 4 days, 1% O2 versus 21% O2, ENO1-deleted glioma cells): greater than 15 fold
- stable in serum-containing culture media [6]: more than 48 hours
- IC50 [1, 9]: 12700 nM
- IC50 ([1]; D423 cells, 1% O2 (hypoxic), read-out: IC50,D423 at 1% O2): 975 nM
- difference in bioactivation from 21% to 1% O2 ([1]; taking into account HIF-1α/hypoxia-driven increase in ENO2 expression): ≤ 50 fold
- stable in ex-vivo human plasma for [7]: more than 48 hours
- stability in ex-vivo human plasma over the course of ([7]; 1.5 mM, human plasma with 10% D2O, 31P NMR): ≥ 24 h

SMILES: O=C1C([P@]2(=O)OCc3ccccc3O2)CCCN1O (stereo partly drawn) [VCY27, 1-hydroxy-3-((S)-2-oxido-4H-benzo[d][1,3,2]dioxaphosphinin-2-yl)piperidin-2-one]
- IC50 [1, 10]: ~500 nM
- IC50 [1, 9]: 500 nM
- IC50 ([1]; D423 cells, 70% O2 (hyperoxic), read-out: IC50,D423 at 70% O2): 15 nM
- selectivity for ENO1-deleted cells [1]: selective killing against ENO1-deleted cells
- stability under various pH conditions and in biological fluids [2]: robust stability
- tumor volume response ([8]; 1 IP and 1 SC injection, at 35 mg/kg/day each): immediate abrogation of tumor growth and eventual tumor regression

SMILES: CC(=O)ON1CCCC(P(=O)(NCc2ccccn2)OCCSC(=O)C(C)(C)C)C1=O (stereo not shown) [VCY31, 2-oxo-3-((2-(pivaloylthio)ethoxy)((pyridin-2-ylmethyl)amino)phosphoryl) piperidin-1-yl acetate]
- IC50 [1, 10]: 59 nM
- IC50 [1, 9]: 59 nM
- selectivity for ENO1-deleted cells [1]: dose-dependent selectivity for ENO1-deleted cells
- tumor volume response ([8]; 90 mg/kg/day IP): suppressed tumor growth
- hydrolysis of the thioester begins to occur after [7, 11]: 2 h
- time without full hydrolysis [7, 11]: > 15 h
